Data reported in patent publication US20110166121A1 (LG LIFE SCIENCES LTD., priority 2008, published 2011).

What follows are compounds tested on Human platelet aggregation caused by ADP (assay: Inhibition of ADP-induced platelet aggregation (Mimic-human PRP)). Conditions: 20 μM ADP, human platelet concentrate diluted with PPP, absorption at 595 nm.
Format: cell-based
Protocol: Platelet Preparation for Aggregation Studies
Human platelet aggregation reaction test is a functional experiment method to verify whether a test compound is an agonist or an antagonist to ADP receptor. […] The platelet product isolated from whole blood was purchased from Chung-Nam blood center (Dae-joen, South Korea). The platelet was isolated from 400 mL of whole blood containing 56 mL of CPDA-1 anticoagulant. To isolate the platelet product, 400 mL of whole blood was centrifuged at 260×g for 5 minutes, and then obtained PRP (platelet rich plasma) was secondary centrifuged at 370×g for 6 minutes. Platelet pellet (10^9/mL) was suspended with 45 mL of plasma and then agitated over 1 hour at 22° C. blood reservoir to stabilize it. The stabilized platelet product was used in the experiment within 24 hours. PCs (Platelet Concentrates) were gently transferred to a new 50 ml-falcon tube. The number of platelet was counted by using animal blood counter (ABC Vet, ABX diagnostics, France). The volume of 30 mL of PCs collected from same donor was centrifuged at 1500 g for 10 min at room temperature to prepare platelet-poor plasma (PPP). The platelet count was adjusted to platelet number of 3˜4×10^8/mL by diluting with PPP.
Evaluation on Inhibitory Effect of ADP-Induced Aggregation
Inhibition of ADP-induced aggregation was determined in 96-well flat-bottom plates (Costar, USA) at room temperature. The diluted platelet was aliquoted into each well of 96 well plate in the volume of 188 μl. […] The platelet including test compounds was immediately mixed on a shaker at 1050 rpm for 1 min and incubated at room temperature for 20 min. Then, 10 μL volume of 400 μM ADP was added: the final concentration of 20 μM ADP in the total reaction volume of 0.2 mL/well. After shaking of the plate at room temperature for 3 min, the absorption of the samples was determined at 595 nm using a microtiter plate reader (Softmax, Molecular Devices).
A dose-dependent curve on serial dilutions of ADP was accomplished by adding vehicle (DMSO) instead of antagonists in order to calculate EC50 of ADP. Inhibition of aggregation was calculated from the increase of absorption at 595 nm at 3 min of the reaction incubation, compared to results of absorption between the 0 and 20 μM ADP control without antagonists. Sigmoidal dose-response curves and Ki were derived by non-linear regression analysis using the Prism software (GraphPad, San Diego Calif.).
In the case of `CCCC(=O)N1CCC[C@@H]1COc1nc(N2CCn3c(nnc3C(F)(F)F)C2)c2cc(CCC)sc2n1` [Example 8-29, 1-{(R)-2-[6-Propyl-4-(3-trifluoromethyl-5,6-dihydro-8H-[1,2,4]triazolo[4,3-a]pyrazin-7-yl)-thieno[2,3-d]pyrimidin-2-yloxymethyl]-pyrrolidin-1-yl}-butan-1-one], the Ki is reported as 170 nM.
`CCCc1cc2c(N3CCn4c(nnc4C(F)(F)F)C3)nc(OCC)nc2s1` [Example 9-36, 7-(2-Ethoxy-6-propyl-thieno[2,3-d]pyrimidin-4-yl)-3-trifluoromethyl-5,6,7,8-tetrahydro-[1,2,4]triazolo[4,3-a]pyrazine] was tested, and the Ki was 170 nM.
With `CCCc1cc2c(N3CCn4c(nnc4C(F)(F)F)C3)nc(OCCNC(=O)CO)nc2s1` [Example 3-60, 2-Hydroxy-N-{2-[6-propyl-4-(3-trifluoromethyl-5,6-dihydro-8H-[1,2,4]triazolo[4,3-a]pyrazin-7-yl)-thieno[2,3-d]pyrimidin-2-yloxy]-ethyl}-acetamide] the Ki was 0.7 nM.
With `CCCc1cc2c(N3CCn4c(nnc4C(F)(F)F)C3)nc(OCCNC(=O)C(F)(F)F)nc2s1` [Example 3-61, 2,2,2-Trifluoro-N-{2-[6-propyl-4-(3-trifluoromethyl-5,6-dihydro-8H-[1,2,4]triazolo[4,3-a]pyrazin-7-yl)-thieno[2,3-d]pyrimidin-2-yloxy]-ethyl}-acetamide] the Ki was 5.4 nM.
Compound `CCCc1cc2c(N3CCn4c(nnc4C(F)(F)F)C3)nc(OCCNC(=O)C3CC3)nc2s1` [Example 3-59, Cyclopropanecarboxylic Acid {2-[6-propyl-4-(3-trifluoromethyl-5,6-dihydro-8H-[1,2,4]triazolo[4,3-a]pyrazin-7-yl)-thieno[2,3-d]pyrimidin-2-yloxy]-ethyl}-amide] has a Ki of 1.5 nM.
With `CCCc1cc2c(N3CCn4c(nnc4C(F)(F)F)C3)nc(N3CC(O)C(NC(=O)CO)C3)nc2s1` (centres unmarked) [Example 7-22, 2-Hydroxy-N-{4-hydroxy-1-[6-propyl-4-(3-trifluoromethyl-5,6-dihydro-8H-[1,2,4]triazolo[4,3-a]pyrazin-7-yl)-thieno[2,3-d]pyrimidin-2-yl]-pyrrolidin-3-yl}-acetamide] the Ki was 4 nM.
For `CCCC(=O)N1CCC[C@H]1COc1nc(N2CCn3c(nnc3C(F)(F)F)C2)c2cc(CCC)sc2n1` [Example 8-32, 1-{(S)-2-[6-Propyl-4-(3-trifluoromethyl-5,6-dihydro-8H-[1,2,4]triazolo[4,3-a]pyrazin-7-yl)-thieno[2,3-d]pyrimidin-2-yloxymethyl]-pyrrolidin-1-yl}-butan-1-one], the Ki was 62 nM.
In the case of `CCCc1cc2c(N3CCn4c(nnc4C(F)(F)F)C3)nc(OC(C)CNC(C)=O)nc2s1` (centres unmarked) [Example 9-76, N-{2-[6-Propyl-4-(3-trifluoromethyl-5,6-dihydro-8H-[1,2,4]triazolo[4,3-a]pyrazin-7-yl)-thieno[2,3-d]pyrimidin-2-yloxy]-propyl}-acetamide], the Ki is reported as 22 nM.
`CCCc1cc2c(N3CCn4c(nnc4C(F)(F)F)C3)nc(OCC(C)NC=O)nc2s1` (centres unmarked) [Example 9-75, N-{1-Methyl-2-[6-propyl-4-(3-trifluoromethyl-5,6-dihydro-8H-[1,2,4]triazolo[4,3-a]pyrazin-7-yl)-thieno[2,3-d]pyrimidin-2-yloxy]-ethyl}-formamide] was tested, and the Ki was 3 nM.
In the case of `CCCc1cc2c(N3CCn4c(nnc4C(F)(F)F)C3)nc(N3CCCC(C(=O)N(C)C)C3)nc2s1` (centres unmarked) [Example 1-94, 1-[6-Propyl-4-(3-trifluoromethyl-5,6-dihydro-8H-[1,2,4]triazolo[4,3-a]pyrazin-7-yl)-thieno[2,3-d]pyrimidin-2-yl]-piperidine-3-carboxylic acid dimethylamide], the Ki is reported as 29 nM.
`CCCc1cc2c(N3CCn4c(nnc4C(F)(F)F)C3)nc(NC(=O)OC)nc2s1` [Example 9-107, [6-Propyl-4-(3-trifluoromethyl-5,6-dihydro-8H-[1,2,4]triazolo[4,3-a]pyrazin-7-yl)-thieno[2,3-d]pyrimidin-2-yl]-carbamic acid methyl ester] showed a Ki of 170 nM.
